Entries after “also recorded” stand apart in the source; their conditions may differ.
What was measured:
578 cancer cell lines = test: PRISM multiplexed cellular viability assay; type: cell-based; conditions: for prediction of cell line sensitivity by SLC26A2 expression: more than 4,000 compounds profiled against 578 cancer cell lines
Protocol: Parental cell lines were obtained from the Cancer Cell Line Encyclopedia (CCLE) project (1). PRISM cell line barcoding, pooling, and screening was performed as previously described with several improvements to the original method (2). First, the lentiviral vector was modified to encode the unique barcode identifier at the end of the puromycin resistance gene. This enables barcodes to be detected using a variant of the mRNA capture and Luminex detection method developed for the L1000 gene expression assay (3). Second, a set of ten inert barcodes were spiked-in to each well of each plate after cell lysis to control for variation in PCR amplification as detailed below.
Luminex technology produced .Ixb files containing data for each Luminex bead observed during detection. These .Ixb files were processed to compute Median Fluorescence Intensity (MFI) values, calculated as the median of the values obtained for all beads corresponding to a single PRISM barcode.
MFI values were log-transformed (logMFI) and used to perform basic quality control. To detect probable screening artifacts, logMFI values were centered to the median logMFI for each cell line on each plate in order to put the measurements from each cell line on the same scale. For each well on each plate, the median of these centered values was then standardized according to the global median and global MAD across all plate wells in the same position. Data from wells with a standardized score of greater than 5 or less than −5 were excluded from all further processing steps.
For each cell line on each plate, the distribution of MFI values observed for the DMSO-treated negative controls was compared to that of the positive controls using a robust form of the Strictly Standardized Mean Difference (SSMD*)′. Specifically, SSMD* was calculated as: […]
Data corresponding to SSMD values less than 2 were removed before calculating cell viability.
The data in the instant disclosure were produced according to two different screening protocols. In the PR500 protocol, ten inert barcodes were spiked-in to each well of each plate after cell lysis. For data produced using the PR500 protocol, normalized MFI (nMFI) values were computed by taking the ratio of each MFI value against the median of the inert barcodes within each well. For data produced before the PR500 protocol was introduced, nMFI values were set equal to MFI values.
Cell viability was calculated as the ratio of nMFI to the median of the nMFI from the DMSO-treated negative controls for each cell line on each plate. Batch effects produced from variable detection and assay conditions were then removed using ComBat (4). The final viability values were calculated as the median of the batch-corrected cell viabilities from biological replicates for each cell line, compound and dose.
Measures of dose response were obtained by fitting 3-parameter logistic curves to viability values for each compound and cell line using the R package ‘drc’. Following the practice of Smirnov and Safikhani (5), viability was truncated at 1.0 and fit as a function of drug concentration according to:
[formula] where all concentrations are in the natural logarithm scale. IC50 values were defined as the concentration c at which V(c)=0.5, given by the formula:
[formula] The Area Under the dose response Curve (AUC) was calculated using the normalized integral: […]
The formulation above puts AUC values on a scale between 0 and 1, where lower AUC values indicate increased sensitivity to the treatment.

[1] = diabetic rats; cited from earlier work
[2] = molecular target: T1, protein tyrosine phosphatase-1B (PTP-1B) (Homo sapiens, UniProt P18031); conditions: cited from earlier work
T1 sequence (P18031 1-435): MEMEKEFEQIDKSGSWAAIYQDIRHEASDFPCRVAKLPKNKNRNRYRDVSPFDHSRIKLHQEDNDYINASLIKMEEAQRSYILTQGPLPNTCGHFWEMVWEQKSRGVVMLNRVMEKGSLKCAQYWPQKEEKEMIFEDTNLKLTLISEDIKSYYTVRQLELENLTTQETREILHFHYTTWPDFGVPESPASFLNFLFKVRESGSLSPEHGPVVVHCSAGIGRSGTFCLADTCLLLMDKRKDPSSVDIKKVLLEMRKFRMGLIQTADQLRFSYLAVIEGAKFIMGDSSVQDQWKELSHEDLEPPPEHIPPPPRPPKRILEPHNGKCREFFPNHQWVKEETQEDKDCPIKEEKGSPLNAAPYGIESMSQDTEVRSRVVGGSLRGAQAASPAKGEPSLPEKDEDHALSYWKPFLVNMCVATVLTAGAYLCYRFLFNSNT

[3] = tested on: SLC26A2 knockouts in A375, OVISE, and A2058 cell lines; test: CellTiter-Glo cellular viability assay in CRISPR-Cas9 SLC26A2 knockout cell lines; type: cell-based; conditions: FIGS. 7A-7C
Description: XP003, XP023, psPAX, and pMD2.G vectors were acquired from the Broad Genetic Perturbation Platform (GPP). Oligos for sgRNAs designs were generated using Broad GPP sgRNA guide generator resource (on the World Wide Web at (www)broad institute.org/gpp/db/analvsis-tools/sgrna-design) and the respective oligos were synthesized by Integrated DNA Technologies. In order to clone the sgRNAs into either the XPR003 guide only or XPRO23 all-in-one crispr lentiviral expression systems the protocol available on the Broad GPP website (www.broadinstitute.org/gpp/db/resources/protocols) was followed.
In order to generate viral vectors, HEK293T cells were seeded in 6 well plates at a density of 1.5E6 cells per well. Cells were then transfected with a mixture of TranslT@-LT1 Transfection Reagent (MirusBio #M1R2304), psPAX2, pMD2.G, lentiviral plasmid diluted in Opti-MEM™ (Thermo #31985062). The following day media was changed DMEM (Thermo #10566016) with 30% FBS (Sigma 18A079). 72 hrs after transfection, virus containing media was collected and run through a 0.2 uM filter to remove cellular debris. Virus was aliquoted and stored short term at −20 C until infection day. […]
Cell viability was assayed using a modified manufacturer's protocol for CellTiter-Glo® (Promega #G7573). […] Luminescence was measured with an integration time of 0.1 s using Envision Microplates Reader (PERKIN ELMER #2105-0010). […]

SMILES | prediction of cell line sensitivity by SLC26A2 expression (578 cancer cell lines) | glycaemia and insulin levels [1] | phosphatase inhibition [2] | effect of SLC26A2 knockout on BMOV sensitivity (percent viability curves) [3] | selective killing of cancer cell lines (578 cancer cell lines; SLC26A2-high versus lower SLC26A2 expression cell lines)
CCc1occc(=O)c1[O][V](=[O])[O]c1c(CC)occc1=O [BEOV, bis(ethylmaltolato)oxovanadium(IV)] | high SLC26A2 transcriptional target gene expression predicted cell line sensitivity | – | – | – | –
CC(C)c1occc(=O)c1[O][V](=[O])[O]c1c(C(C)C)occc1=O [BIOV, bis(isopropylmaltolato)oxovanadium(IV)] | high SLC26A2 transcriptional target gene expression predicted cell line sensitivity | – | – | – | –
Cc1occc(=O)c1[O][V](=[O])[O]c1c(C)occc1=O [BMOV, bis(maltolato)oxovanadium(IV)] | high SLC26A2 transcriptional target gene expression predicted cell line sensitivity | restore normoglycaemia without rising insulin levels | potent phosphatase inhibitor | SLC26A2 knockouts rescue BMOV sensitivity | selective killing of SLC26A2-high cancer cell lines; also recorded: selectively kills ovarian cancer cells, bone cancer cells, and melanoma cells
CCCCc1occc(=O)c1[O][V](=[O])[O]c1c(CCCC)occc1=O [BnBOV, bis(n-butylmaltolato)oxovanadium(IV)] | high SLC26A2 transcriptional target gene expression predicted cell line sensitivity | – | – | – | –
